Laboratory results taken from ChEMBL document CHEMBL5058646 (2022).

Legend:
[1] = biological target: Mu-type opioid receptor (Homo sapiens, UniProt P35372); settings: Compound concentration 10.0 uM
[2] = biological target: Myoneurin (Homo sapiens) (UniProt Q9NPC7); settings: SUD4, Compound concentration 1.0 uM
[3] = biological target: Tyrosine-protein kinase Fes/Fps (Homo sapiens) (UniProt P07332); assay: FES SGC Tm panel (DSF); settings: Compound concentration 20.0 uM
[4] = biological target: Tyrosine-protein kinase Mer (Homo sapiens) (UniProt Q12866); assay: MERTK SGC Tm panel (DSF); settings: Compound concentration 20.0 uM
Sequence of Tyrosine-protein kinase Mer (Homo sapiens) (Q12866 whole entry): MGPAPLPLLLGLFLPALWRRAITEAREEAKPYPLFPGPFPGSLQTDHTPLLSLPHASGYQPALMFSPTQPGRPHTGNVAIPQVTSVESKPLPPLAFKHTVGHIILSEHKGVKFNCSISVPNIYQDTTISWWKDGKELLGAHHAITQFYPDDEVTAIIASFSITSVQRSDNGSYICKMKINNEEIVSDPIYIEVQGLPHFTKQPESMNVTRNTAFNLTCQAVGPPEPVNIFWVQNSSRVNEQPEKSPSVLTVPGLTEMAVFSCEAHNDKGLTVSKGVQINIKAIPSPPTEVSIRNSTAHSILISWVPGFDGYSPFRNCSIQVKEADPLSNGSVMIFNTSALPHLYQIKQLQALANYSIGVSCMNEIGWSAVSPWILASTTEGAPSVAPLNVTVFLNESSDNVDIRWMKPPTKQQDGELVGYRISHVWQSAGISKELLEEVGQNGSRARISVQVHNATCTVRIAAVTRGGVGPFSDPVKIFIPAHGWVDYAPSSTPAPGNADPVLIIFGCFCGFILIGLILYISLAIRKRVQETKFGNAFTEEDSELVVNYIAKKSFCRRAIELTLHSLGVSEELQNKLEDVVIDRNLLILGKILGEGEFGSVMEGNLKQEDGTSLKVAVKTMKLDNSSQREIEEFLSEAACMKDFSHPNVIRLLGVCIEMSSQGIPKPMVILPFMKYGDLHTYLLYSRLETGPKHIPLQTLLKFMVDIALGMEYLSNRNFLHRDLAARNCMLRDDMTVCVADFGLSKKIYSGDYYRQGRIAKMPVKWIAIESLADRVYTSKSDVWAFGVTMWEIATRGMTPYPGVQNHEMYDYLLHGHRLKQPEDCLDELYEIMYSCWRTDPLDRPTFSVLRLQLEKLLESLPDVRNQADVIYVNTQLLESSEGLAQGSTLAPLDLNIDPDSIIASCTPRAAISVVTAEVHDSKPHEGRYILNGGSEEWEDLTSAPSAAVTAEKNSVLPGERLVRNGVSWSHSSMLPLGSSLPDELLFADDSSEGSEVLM

[5] = biological target: Calcium/calmodulin-dependent protein kinase kinase 2 (Homo sapiens) (UniProt Q96RR4); assay: CAMKK2 SGC Tm panel (DSF); settings: Compound concentration 20.0 uM
Sequence of Calcium/calmodulin-dependent protein kinase kinase 2 (Homo sapiens) (Q96RR4 2-588 limits assumed): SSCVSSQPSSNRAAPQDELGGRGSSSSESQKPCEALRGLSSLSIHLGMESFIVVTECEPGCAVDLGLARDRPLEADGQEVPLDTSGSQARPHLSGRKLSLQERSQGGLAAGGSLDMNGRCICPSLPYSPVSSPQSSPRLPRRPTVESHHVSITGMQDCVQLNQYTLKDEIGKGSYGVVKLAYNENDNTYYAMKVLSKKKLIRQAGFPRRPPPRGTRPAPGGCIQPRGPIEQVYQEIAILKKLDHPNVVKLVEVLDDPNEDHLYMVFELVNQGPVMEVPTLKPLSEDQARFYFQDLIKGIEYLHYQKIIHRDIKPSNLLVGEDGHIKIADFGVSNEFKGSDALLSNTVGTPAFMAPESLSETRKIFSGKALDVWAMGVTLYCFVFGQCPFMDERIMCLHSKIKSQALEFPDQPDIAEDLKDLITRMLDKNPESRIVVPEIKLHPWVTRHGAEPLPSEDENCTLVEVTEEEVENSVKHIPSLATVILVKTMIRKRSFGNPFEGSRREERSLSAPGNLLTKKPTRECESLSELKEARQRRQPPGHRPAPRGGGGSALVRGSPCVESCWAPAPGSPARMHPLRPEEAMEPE

[6] = biological target: T1, Telomere zinc finger-associated protein (Homo sapiens) (UniProt P10074); settings: OCI-Ly1, Compound concentration 1.0 uM
T1 sequence (whole entry): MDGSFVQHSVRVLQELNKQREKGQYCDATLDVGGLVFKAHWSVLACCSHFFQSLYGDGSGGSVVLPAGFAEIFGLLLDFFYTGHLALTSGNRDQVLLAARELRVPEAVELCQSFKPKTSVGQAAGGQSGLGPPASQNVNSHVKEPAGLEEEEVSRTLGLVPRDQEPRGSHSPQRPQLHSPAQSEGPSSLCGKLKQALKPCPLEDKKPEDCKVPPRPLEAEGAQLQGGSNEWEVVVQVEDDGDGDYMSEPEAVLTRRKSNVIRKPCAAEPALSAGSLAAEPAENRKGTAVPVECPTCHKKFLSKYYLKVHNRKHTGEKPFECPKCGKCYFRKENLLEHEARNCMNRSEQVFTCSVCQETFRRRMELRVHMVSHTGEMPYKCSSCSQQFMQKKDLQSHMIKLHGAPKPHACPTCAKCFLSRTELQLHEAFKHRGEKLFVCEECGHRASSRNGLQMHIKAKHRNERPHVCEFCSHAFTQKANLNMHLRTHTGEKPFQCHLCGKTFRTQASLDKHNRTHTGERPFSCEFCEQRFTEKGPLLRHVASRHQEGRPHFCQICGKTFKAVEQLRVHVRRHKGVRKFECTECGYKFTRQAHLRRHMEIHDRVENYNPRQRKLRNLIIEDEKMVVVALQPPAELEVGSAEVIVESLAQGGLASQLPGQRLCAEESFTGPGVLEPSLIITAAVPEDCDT

[7] = biological target: Transcription intermediary factor 1-alpha (Homo sapiens) (UniProt O15164); assay: TIF1 SGC Tm panel (DSF); settings: Compound concentration 20.0 uM
Sequence of Transcription intermediary factor 1-alpha (Homo sapiens) (O15164 whole entry, the tested form may be a part): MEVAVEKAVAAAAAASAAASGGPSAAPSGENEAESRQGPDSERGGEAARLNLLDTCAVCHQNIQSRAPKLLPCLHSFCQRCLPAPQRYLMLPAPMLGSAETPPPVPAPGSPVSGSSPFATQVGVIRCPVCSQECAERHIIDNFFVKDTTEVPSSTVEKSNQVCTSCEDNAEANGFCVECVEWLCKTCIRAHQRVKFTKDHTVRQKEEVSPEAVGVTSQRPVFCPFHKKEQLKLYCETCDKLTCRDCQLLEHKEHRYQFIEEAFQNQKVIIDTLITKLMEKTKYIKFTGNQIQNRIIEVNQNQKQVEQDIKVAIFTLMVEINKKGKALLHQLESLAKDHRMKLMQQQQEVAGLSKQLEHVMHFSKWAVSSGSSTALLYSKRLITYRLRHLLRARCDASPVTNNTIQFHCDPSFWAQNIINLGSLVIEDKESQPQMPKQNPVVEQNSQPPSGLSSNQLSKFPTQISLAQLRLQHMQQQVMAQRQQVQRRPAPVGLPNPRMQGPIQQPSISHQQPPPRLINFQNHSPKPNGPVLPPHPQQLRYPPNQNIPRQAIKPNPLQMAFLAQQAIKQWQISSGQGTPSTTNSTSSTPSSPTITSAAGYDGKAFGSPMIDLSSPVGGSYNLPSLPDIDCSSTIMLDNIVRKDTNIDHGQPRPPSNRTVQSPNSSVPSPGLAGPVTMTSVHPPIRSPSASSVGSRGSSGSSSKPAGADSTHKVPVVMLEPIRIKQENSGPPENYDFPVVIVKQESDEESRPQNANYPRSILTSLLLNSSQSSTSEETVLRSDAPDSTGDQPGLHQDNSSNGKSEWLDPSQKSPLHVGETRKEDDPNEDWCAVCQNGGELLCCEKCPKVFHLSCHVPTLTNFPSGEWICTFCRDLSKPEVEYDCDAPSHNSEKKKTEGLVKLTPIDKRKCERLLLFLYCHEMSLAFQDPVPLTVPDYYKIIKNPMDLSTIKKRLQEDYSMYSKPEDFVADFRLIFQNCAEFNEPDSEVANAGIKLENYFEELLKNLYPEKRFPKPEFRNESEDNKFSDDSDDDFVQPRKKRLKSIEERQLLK

[8] = biological target: T2, Zinc finger and BTB domain-containing protein 1 (Homo sapiens) (UniProt Q9Y2K1); settings: SUD4, Compound concentration 1.0 uM
T2 sequence (whole entry): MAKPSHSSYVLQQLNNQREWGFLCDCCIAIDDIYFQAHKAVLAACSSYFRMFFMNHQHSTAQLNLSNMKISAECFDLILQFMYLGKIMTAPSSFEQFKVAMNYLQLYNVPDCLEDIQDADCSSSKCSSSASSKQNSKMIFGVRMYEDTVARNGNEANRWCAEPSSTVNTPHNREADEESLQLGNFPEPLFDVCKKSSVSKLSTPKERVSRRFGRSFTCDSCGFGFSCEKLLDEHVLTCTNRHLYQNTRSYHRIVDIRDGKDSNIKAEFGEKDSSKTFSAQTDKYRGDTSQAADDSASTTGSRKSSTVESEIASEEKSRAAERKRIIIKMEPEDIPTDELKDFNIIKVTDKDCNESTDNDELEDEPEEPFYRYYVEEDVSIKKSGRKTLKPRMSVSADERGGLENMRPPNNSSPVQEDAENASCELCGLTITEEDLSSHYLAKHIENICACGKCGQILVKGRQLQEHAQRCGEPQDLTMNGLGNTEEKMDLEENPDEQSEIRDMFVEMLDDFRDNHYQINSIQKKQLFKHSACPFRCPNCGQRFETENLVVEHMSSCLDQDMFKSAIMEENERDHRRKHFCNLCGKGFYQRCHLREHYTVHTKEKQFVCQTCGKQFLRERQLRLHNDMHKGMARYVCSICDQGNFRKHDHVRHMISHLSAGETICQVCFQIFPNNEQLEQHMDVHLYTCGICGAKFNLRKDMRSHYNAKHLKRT

[9] = biological target: Histamine H2 receptor (Homo sapiens) (UniProt P25021); settings: Compound concentration 10.0 uM
Sequence of Histamine H2 receptor (Homo sapiens) (P25021 whole entry, the tested form may be a part): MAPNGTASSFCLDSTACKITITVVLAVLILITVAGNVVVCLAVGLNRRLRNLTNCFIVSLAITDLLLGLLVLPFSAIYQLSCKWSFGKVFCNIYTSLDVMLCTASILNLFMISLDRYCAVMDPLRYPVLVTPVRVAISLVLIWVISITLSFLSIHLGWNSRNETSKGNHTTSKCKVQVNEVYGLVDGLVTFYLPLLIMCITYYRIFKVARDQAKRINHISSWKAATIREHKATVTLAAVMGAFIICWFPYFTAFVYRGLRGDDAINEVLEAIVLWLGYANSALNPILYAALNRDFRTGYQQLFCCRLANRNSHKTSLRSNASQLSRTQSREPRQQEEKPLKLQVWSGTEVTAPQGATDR

[10] = biological target: T3, Zinc finger and BTB domain-containing protein 10 (Homo sapiens) (UniProt Q96DT7); settings: OCI-Ly1, Compound concentration 1.0 uM
T3 sequence (whole entry): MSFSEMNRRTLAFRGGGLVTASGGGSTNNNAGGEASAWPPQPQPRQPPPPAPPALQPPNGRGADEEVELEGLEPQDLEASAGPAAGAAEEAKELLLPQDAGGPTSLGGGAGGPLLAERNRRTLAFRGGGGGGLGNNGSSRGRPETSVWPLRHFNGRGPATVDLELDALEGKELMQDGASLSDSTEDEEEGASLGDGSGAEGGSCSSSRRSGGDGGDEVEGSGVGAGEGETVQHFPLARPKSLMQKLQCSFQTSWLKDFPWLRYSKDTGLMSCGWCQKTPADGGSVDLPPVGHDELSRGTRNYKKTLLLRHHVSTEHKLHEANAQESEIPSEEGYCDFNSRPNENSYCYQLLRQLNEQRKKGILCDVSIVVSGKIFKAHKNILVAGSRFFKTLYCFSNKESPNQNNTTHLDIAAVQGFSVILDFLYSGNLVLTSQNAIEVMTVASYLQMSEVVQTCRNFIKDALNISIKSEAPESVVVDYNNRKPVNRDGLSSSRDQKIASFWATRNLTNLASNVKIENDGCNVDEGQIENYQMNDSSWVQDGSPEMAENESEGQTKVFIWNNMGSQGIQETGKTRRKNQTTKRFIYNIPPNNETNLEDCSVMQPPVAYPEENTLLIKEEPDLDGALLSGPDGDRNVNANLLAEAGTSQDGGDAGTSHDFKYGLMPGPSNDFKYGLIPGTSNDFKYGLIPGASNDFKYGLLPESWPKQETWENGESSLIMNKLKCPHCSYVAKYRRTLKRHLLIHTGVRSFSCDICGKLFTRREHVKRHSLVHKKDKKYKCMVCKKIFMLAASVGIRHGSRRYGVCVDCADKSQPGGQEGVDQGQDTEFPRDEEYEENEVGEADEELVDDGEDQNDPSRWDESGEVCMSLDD

Sequence of Myoneurin (Homo sapiens) (Q9NPC7 whole entry): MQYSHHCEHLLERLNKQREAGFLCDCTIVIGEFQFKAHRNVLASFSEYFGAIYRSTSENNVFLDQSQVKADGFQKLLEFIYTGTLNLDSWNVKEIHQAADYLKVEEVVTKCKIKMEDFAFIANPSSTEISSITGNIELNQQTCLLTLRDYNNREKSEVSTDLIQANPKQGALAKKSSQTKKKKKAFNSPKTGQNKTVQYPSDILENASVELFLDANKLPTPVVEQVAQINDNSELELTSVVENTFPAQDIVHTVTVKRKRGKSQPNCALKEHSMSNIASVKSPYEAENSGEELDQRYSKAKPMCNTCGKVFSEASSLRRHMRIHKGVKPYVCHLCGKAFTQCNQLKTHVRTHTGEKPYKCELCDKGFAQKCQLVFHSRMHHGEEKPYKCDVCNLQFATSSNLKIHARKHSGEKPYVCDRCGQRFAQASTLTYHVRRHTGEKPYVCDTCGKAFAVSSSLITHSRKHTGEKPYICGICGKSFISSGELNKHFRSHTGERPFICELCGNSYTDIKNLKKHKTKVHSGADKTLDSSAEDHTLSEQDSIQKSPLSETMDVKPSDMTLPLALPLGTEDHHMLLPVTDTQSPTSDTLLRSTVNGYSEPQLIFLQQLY
Sequence of Tyrosine-protein kinase Fes/Fps (Homo sapiens) (P07332 whole entry): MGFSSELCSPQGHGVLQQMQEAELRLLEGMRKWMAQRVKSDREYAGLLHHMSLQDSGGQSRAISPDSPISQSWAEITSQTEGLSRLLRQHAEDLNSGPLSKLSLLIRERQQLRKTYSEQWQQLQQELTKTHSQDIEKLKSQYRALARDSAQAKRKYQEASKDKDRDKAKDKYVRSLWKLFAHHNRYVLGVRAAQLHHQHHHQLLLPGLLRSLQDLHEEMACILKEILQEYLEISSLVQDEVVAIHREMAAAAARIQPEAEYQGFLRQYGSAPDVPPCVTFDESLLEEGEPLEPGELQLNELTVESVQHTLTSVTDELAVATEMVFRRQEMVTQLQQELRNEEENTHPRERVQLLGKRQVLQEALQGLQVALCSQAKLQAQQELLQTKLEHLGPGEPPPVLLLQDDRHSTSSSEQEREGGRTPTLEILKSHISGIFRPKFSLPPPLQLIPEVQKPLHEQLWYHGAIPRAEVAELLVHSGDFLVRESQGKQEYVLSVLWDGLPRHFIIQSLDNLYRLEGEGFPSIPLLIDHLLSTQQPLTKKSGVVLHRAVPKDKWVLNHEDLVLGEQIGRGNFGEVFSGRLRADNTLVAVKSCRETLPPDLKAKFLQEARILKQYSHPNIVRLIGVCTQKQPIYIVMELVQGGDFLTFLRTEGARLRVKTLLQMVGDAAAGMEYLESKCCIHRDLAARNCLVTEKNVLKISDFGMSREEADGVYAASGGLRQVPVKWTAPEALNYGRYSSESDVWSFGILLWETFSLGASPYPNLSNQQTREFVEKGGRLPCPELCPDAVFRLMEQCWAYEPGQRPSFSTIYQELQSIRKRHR
Sequence of Mu-type opioid receptor (P35372 whole entry): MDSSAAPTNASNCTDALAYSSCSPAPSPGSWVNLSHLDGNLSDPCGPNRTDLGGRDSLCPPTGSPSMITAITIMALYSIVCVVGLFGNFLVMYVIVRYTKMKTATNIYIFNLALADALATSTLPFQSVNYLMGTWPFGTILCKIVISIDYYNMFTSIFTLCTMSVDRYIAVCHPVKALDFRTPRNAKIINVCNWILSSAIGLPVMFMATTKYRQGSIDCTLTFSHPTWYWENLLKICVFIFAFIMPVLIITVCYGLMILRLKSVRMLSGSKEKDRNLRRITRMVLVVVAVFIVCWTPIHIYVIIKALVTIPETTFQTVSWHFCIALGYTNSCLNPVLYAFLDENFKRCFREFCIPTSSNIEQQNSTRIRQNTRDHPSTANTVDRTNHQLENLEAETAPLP

C[C@@H]1CN(c2ncc(Cl)c(Nc3ccc4c(c3)n(CCC(C)(C)O)c(=O)n4C)n2)C[C@H](C)C1(F)F
active: inhibition [1] 86.6%
inactive: LogFC [2] -0.189 | Tm [3] 44 °C | Tm [4] 47 °C | Tm [5] 38 °C | LogFC [6] 0.0229 | Tm [7] 36 °C | LogFC [8] -0.0255 | inhibition [9] 43.7% | LogFC [10] 0.103
